{"source": "ChEMBL document CHEMBL1201862", "about": "“PubChem BioAssay data set” (2004)", "test_in_all_cases": "NCI anticancer screen, dose series, 48 h", "key": {"[1]": {"test_system": "HCT-116"}, "[2]": {"test_system": "NCI/ADR-RES"}, "[3]": {"test_system": "A498"}, "[4]": {"test_system": "Hs-578T"}, "[5]": {"test_system": "RXF 393"}, "[6]": {"test_system": "COLO 205"}, "[7]": {"test_system": "NCI-H226"}, "[8]": {"test_system": "Malme-3M"}, "[9]": {"test_system": "CCRF-CEM"}, "[10]": {"test_system": "TK-10"}, "[11]": {"test_system": "MDA-MB-435"}, "[12]": {"test_system": "NCI-H23"}, "[13]": {"test_system": "RPMI-8226"}, "[14]": {"test_system": "SK-MEL-2"}, "[15]": {"test_system": "LOX IMVI"}, "[16]": {"test_system": "OVCAR-3"}, "[17]": {"test_system": "SK-MEL-5"}, "[18]": {"test_system": "UACC-62"}, "[19]": {"test_system": "OVCAR-5"}, "[20]": {"test_system": "HOP-62"}, "[21]": {"test_system": "CAKI-1"}, "[22]": {"test_system": "OVCAR-8"}, "[23]": {"test_system": "MOLT-4"}, "[24]": {"test_system": "A549"}, "[25]": {"test_system": "HL-60"}, "[26]": {"test_system": "SN12C"}, "[27]": {"test_system": "DU-145"}, "[28]": {"test_system": "SF-539"}, "[29]": {"test_system": "786-0"}, "[30]": {"test_system": "NCI-H460"}, "[31]": {"test_system": "EKVX"}, "[32]": {"test_system": "HT-29"}, "[33]": {"test_system": "BT-549"}, "[34]": {"test_system": "U-251"}, "[35]": {"test_system": "M14"}, "[36]": {"test_system": "SW-620"}, "[37]": {"test_system": "HCC 2998"}, "[38]": {"test_system": "MCF7"}, "[39]": {"test_system": "MDA-N"}, "[40]": {"test_system": "MDA-MB-231"}, "[41]": {"test_system": "UACC-257"}, "[42]": {"test_system": "PC-3"}, "[43]": {"test_system": "SNB-75"}, "[44]": {"test_system": "OVCAR-4"}, "[45]": {"test_system": "SF-268"}, "[46]": {"test_system": "SF-295"}, "[47]": {"test_system": "K562"}, "[48]": {"test_system": "UO-31"}, "[49]": {"test_system": "KM12"}, "[50]": {"test_system": "SNB-19"}, "[51]": {"test_system": "SK-MEL-28"}, "[52]": {"test_system": "IGROV-1"}, "[53]": {"test_system": "HOP-92"}, "[54]": {"test_system": "SK-OV-3"}, "[55]": {"test_system": "T47D"}, "[56]": {"test_system": "HCT-15"}, "[57]": {"test_system": "SR"}, "[58]": {"test_system": "ACHN"}, "[59]": {"test_system": "NCI-H522"}}, "note": "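A five-concentration, 48-hour dose response in 96-well plates underlies each endpoint, interpolated linearly between surrounding concentrations. GI50 marks 50% less growth.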 Active and inactive are the calls of the source. No stated cut-off is given here; in the data, active = GI50 up to about 1.1 µM and inactive = higher."}
{"molecule": "C1=N\\CCNCC/N=C/c2ccccc2OCc2cccc(n2)COc2ccccc2/1", "values": [{"measurement": "GI50", "setting": "[1]", "value": "3.57 µM (inactive)"}, {"measurement": "GI50", "setting": "[2]", "value": "6.21 µM (inactive)"}, {"measurement": "GI50", "setting": "[3]", "value": "> 100 µM (inactive)"}, {"measurement": "GI50", "setting": "[4]", "value": "9.51 µM (inactive)"}, {"measurement": "GI50", "setting": "[5]", "value": "27.9 µM (inactive)"}, {"measurement": "GI50", "setting": "[6]", "value": "> 56.8 µM (inactive)"}, {"measurement": "GI50", "setting": "[7]", "value": "26.3 µM (inactive)"}, {"measurement": "GI50", "setting": "[8]", "value": "11.8 µM (inactive)"}, {"measurement": "GI50", "setting": "[9]", "value": "3.33 µM (inactive)"}, {"measurement": "GI50", "setting": "[10]", "value": "20.7 µM (inactive)"}, {"measurement": "GI50", "setting": "[11]", "value": "3.86 µM (inactive)"}, {"measurement": "GI50", "setting": "[12]", "value": "12.9 µM (inactive)"}, {"measurement": "GI50", "setting": "[13]", "value": "3.77 µM (inactive)"}, {"measurement": "GI50", "setting": "[14]", "value": "> 44.5 µM (inactive)"}, {"measurement": "GI50", "setting": "[15]", "value": "5.31 µM (inactive)"}, {"measurement": "GI50", "setting": "[16]", "value": "23.8 µM (inactive)"}, {"measurement": "GI50", "setting": "[17]", "value": "12.6 µM (inactive)"}, {"measurement": "GI50", "setting": "[18]", "value": "6.15 µM (inactive)"}, {"measurement": "GI50", "setting": "[19]", "value": "37.5 µM (inactive)"}, {"measurement": "GI50", "setting": "[20]", "value": "12.4 µM (inactive)"}, {"measurement": "GI50", "setting": "[21]", "value": "42.8 µM (inactive)"}, {"measurement": "GI50", "setting": "[22]", "value": "9.44 µM (inactive)"}, {"measurement": "GI50", "setting": "[23]", "value": "6.43 µM (inactive)"}, {"measurement": "GI50", "setting": "[24]", "value": "> 100 µM (inactive)"}, {"measurement": "GI50", "setting": "[25]", "value": "2.56 µM (inactive)"}, {"measurement": "GI50", "setting": "[26]", "value": "13.2 µM (inactive)"}, {"measurement": "GI50", "setting": "[27]", "value": "26.3 µM (inactive)"}, {"measurement": "GI50", "setting": "[28]", "value": "2.72 µM (inactive)"}, {"measurement": "GI50", "setting": "[29]", "value": "6.7 µM (inactive)"}, {"measurement": "GI50", "setting": "[30]", "value": "33.1 µM (inactive)"}, {"measurement": "GI50", "setting": "[31]", "value": "35.5 µM (inactive)"}, {"measurement": "GI50", "setting": "[32]", "value": "10.7 µM (inactive)"}, {"measurement": "GI50", "setting": "[33]", "value": "12 µM (inactive)"}, {"measurement": "GI50", "setting": "[34]", "value": "6.32 µM (inactive)"}, {"measurement": "GI50", "setting": "[35]", "value": "8.02 µM (inactive)"}, {"measurement": "GI50", "setting": "[36]", "value": "7.05 µM (inactive)"}, {"measurement": "GI50", "setting": "[37]", "value": "19.5 µM (inactive)"}, {"measurement": "GI50", "setting": "[38]", "value": "4.13 µM (inactive)"}, {"measurement": "GI50", "setting": "[39]", "value": "3.18 µM (inactive)"}, {"measurement": "GI50", "setting": "[40]", "value": "22.2 µM (inactive)"}, {"measurement": "GI50", "setting": "[41]", "value": "29.2 µM (inactive)"}, {"measurement": "GI50", "setting": "[42]", "value": "19.2 µM (inactive)"}, {"measurement": "GI50", "setting": "[43]", "value": "9.46 µM (inactive)"}, {"measurement": "GI50", "setting": "[44]", "value": "13.7 µM (inactive)"}, {"measurement": "GI50", "setting": "[45]", "value": "12.9 µM (inactive)"}, {"measurement": "GI50", "setting": "[46]", "value": "8.15 µM (inactive)"}, {"measurement": "GI50", "setting": "[47]", "value": "4.59 µM (inactive)"}, {"measurement": "GI50", "setting": "[48]", "value": "9.12 µM (inactive)"}, {"measurement": "GI50", "setting": "[49]", "value": "20.5 µM (inactive)"}, {"measurement": "GI50", "setting": "[50]", "value": "> 22.4 µM (inactive)"}, {"measurement": "GI50", "setting": "[51]", "value": "7.85 µM (inactive)"}, {"measurement": "GI50", "setting": "[52]", "value": "24.5 µM (inactive)"}, {"measurement": "GI50", "setting": "[53]", "value": "26.1 µM (inactive)"}, {"measurement": "GI50", "setting": "[54]", "value": "43.3 µM (inactive)"}, {"measurement": "GI50", "setting": "[55]", "value": "17.2 µM (inactive)"}, {"measurement": "GI50", "setting": "[56]", "value": 4.69, "unit": "µM"}, {"measurement": "GI50", "setting": "[57]", "value": "4.06 µM (inactive)"}, {"measurement": "GI50", "setting": "[58]", "value": "31.2 µM (inactive)"}, {"measurement": "GI50", "setting": "[59]", "value": "27.5 µM (inactive)"}]}
